Laboratory results published in patent US4215111A, “Peptides having ubiquitin-like activity” (Ortho Pharmaceutical Corporation, priority 1979, dated 1980).
Square brackets hold non-standard residues; d marks the D form. Peptide text beside a SMILES is read from it. Sar = CNCC(=O)O

Columns and labels:
[1] = tested on: Thy-1+ T-lymphocytes and complement receptor (CR+) B-lymphocytes differentiation; test: In vitro induction of Thy-1+ T cell and CR+ B cell differentiation from nu/nu mouse spleen precursor cells; type: cell-based, nu/nu mice (BALB/c background); details: for Active Concentration Range: induction of Thy-1+ T-lymphocytes and CR+ B-lymphocytes in vitro
Method: To determine the activity and characteristics of the peptide of Example I, determinations were carried out on healthy 5-6 week nu/nu mice of both sexes, the mice being bred on a BALB/c background (thymocytes expressing Thy-1.2 surface antigen) and maintained under conventional conditions. For the antisera, anti Thy-1.2 sera were prepared in Thy-1 congenic mice.
For the induction in vitro of Thy-1^+ T cells or CR^+ B cell differentiation, the induction of thymocyte differentiation from prothymocytes in vitro was performed as described by Komuro and Boyse, (Lancet, 1, 740, 1973), using the acquisition of Thy-1.2 as a marker of T cell differentiation. The induction of CR^+ B cell differentiation from CR^- B cell precursors in vitro was performed under similar conditions using as the assay criterion, the capacity of CR^+ B cells to bind sheep erythrocytes coated with subagglutinating quantities of rabbit antibody and nonlytic complement. Spleen cell populations from healthy nu/nu mice fractionated on discontinuous bovine serum albumin gradients were used as the source of both precursor types (Thy-1^- and CR^-) because they have few or no Thy-1^+ cells and low numbers of CR^+ cells.

[2] = reference application; cited from earlier work

**Q.** Which “potency relative to the thymopoietin pentapeptide” value [1] does the source give for NCCCC[C@H](NC(=O)[C@@H](N)CCC(N)=O)C(N)=O [Example I, H-GLN-LYS-NH2] (H-Gln-Lys-NH2) here?
**A.** The value was “same potency as the thymopoietin pentapeptide”.

**Q.** What about the “ubiquitin-like biological activity (in words)” value ([1]; induction of Thy-1+ T and CR+ B lymphocyte differentiation) of the same molecule?
**A.** The value was “selectivity of actions similar to that of ubiquitin”.

**Q.** For CNCC(=O)N[C@@H](CCC(N)=O)C(=O)N[C@@H](CCCCN)C(N)=O [IV, H--SAR--GLN--LYS--NH2] (H-[Sar]-Gln-Lys-NH2), which “Active Concentration Range” value [1] is on record?
**A.** Its value is 1 to 10 µg/mL.

**Q.** With CNCC(=O)N(C)CC(=O)N(C)CC(=O)N[C@@H](CCC(N)=O)C(=O)N[C@@H](CCCCN)C(N)=O [VI, H--SAR--SAR--SAR--GLN--LYS--NH2] (H-[Sar][Sar][Sar]QK-NH2) as the molecule, how does the “potency relative to the thymopoietin pentapeptide” value [1] read?
**A.** The value was “approximately 10 million”.

**Q.** Which “Active Concentration Range” value [1] does the source give for CNCC(=O)N(C)CC(=O)N(C)CC(=O)N(C)CC(=O)N[C@@H](CCC(N)=O)C(=O)N[C@@H](CCCCN)C(N)=O [VII, H--SAR--SAR--SAR--SAR--GLN--LYS--NH2] (H-[Sar][Sar][Sar][Sar]QK-NH2) here?
**A.** The value was 1e-06 to 0.0001 µg/mL.

**Q.** Which “concentration at which activity is possessed” value [2] does the source give for H-ALA-ASN-ILE-GLN-LYS-OH (H-ANIQK-OH) here?
**A.** The value was 0.1 µg/mL.

**Q.** With H-TYR-ALA-ILE-GLN-LYS-OH (H-YAIQK-OH) as the molecule, how does the “concentration at which activity is possessed” value [2] read?
**A.** The value was 0.1 µg/mL.

**Q.** Which “concentration at which activity is possessed” value [2] does the source give for H-TYR-ASN-ALA-GLN-LYS-OH (H-YNAQK-OH) here?
**A.** The value was 0.1 µg/mL.
